This note sets out measurements from publication PMC6193938, “Characterization of a novel AICARFT inhibitor which potently elevates ZMP and has anti-tumor activity in murine models” (Scientific Reports, 2018).

The test system of test [1] is MDA-MB-231met2 and NCI-H460 tumors. The test is described as follows: Tumor volume versus tumor ZMP levels, three parameter logistic fit. To be noted: individual animal data after LSN3213128 treatment, read-out: IC50 of tumor ZMP level for tumor volume. The format is in vivo, mouse. The source says:
The levels of total AMPKα and P70S6K are also shown. […] The levels of total AMPKα are also shown. […] Full images and the croppings used in this figure are shown in Supplemental Figures S14–S21.
Tumor volume decreases with increasing ZMP; however, in these solid tumors there was no evidence for AMPK activation, either using AMPK phosphorylation at T172 or downstream measures at P70S6K T389. Salvage of purines in vivo may explain the absence of purine changes; therefore, we measured levels of hypoxanthine for mouse plasma to be 0.36 ± 0.02 μM (n = 5) which was lower than that reported by Slowiaczek et al.[23]. We also quantified hypoxanthine in human plasma, finding the levels were 2.07 ± 0.01 μM (n = 5), well within the 0.45–34 μM range reported in the literature[19],[23]–[29].

The next test deals with NCI-H460 (lung). The experiment in a line: MS detection of ZMP in cultured cells. The format is cell-based, human. To be noted: NCI-H460; data not shown. As for the experimental part: Cells lines were acquired from cell banks, see supplemental material, grown using the cell banks recommended culture conditions (Supplemental Table 3). In some experiments noted “low folate” the cells were washed and grown in folate free RPMI-1640 media (Gibco #27016-021) supplemented with 5 ml 1 M Hepes, 5 ml 100 mM Na pyruvate, 2.5 mg/ml glucose and 10% defined FBS (Hyclone #SH30070) per 500 mL media for 5–7 days to deplete intracellular folate levels prior to the start of the experiment. Where noted, cells were maintained in complete “high folate” RPMI-1640 media (ATCC #30-2001) with 10% defined FBS to contrast with the low folate conditions.
ZMP was detected in cultured cells via mass spec analysis. Cells were plated in 96-well plates at 25,000 cells per well in 100 µL with either high or low folate RPMI media and incubated overnight at 37 °C with 5% CO2. Cells were treated with inhibitor compounds for 16 hours, 0.5% DMSO final concentration. Growth media was decanted and cells were lysed for 10 min at room temperature with 50 µL per well of 1x Sure Fire Lysis buffer (Perkin Elmer, SureFire kit component). Aliquots (40 µL) of standard or sample were combined in a deep 96-well plate with 160 µL of internal standard solution containing ^13C5-ZMP (custom synthesis) and ^13C5-AICAr (custom synthesis) at 100 ng/mL in 40 mM ammonium acetate, pH 4. 400 µL of dichloromethane was added to each sample. Samples were sealed, vortexed for 5 minutes, and placed in the refrigerator for at least 30 minutes. The samples were centrifuged at 4 °C for 10 minutes at 16,600 g. 75 µL of the aqueous layer were transferred to a clean 96-well plate and seal prior to analysis.
The LC-MS method utilizes a Shimadzu Prominence 20 A HPLC system connected to an AB Sciex 5500™ or an AB Sciex 6500™ triple quadrupole mass spectrometer. Extracted samples were separated using a Thermo Hypercarb™ Javelin guard column (2.1 × 20 mm, 5 µm) with an injection volume of 15 µL and a flow rate of 1 mL/minute.
ZMP, AICAr and dUMP were detected using positive ion TurboIonSpray® multiple reaction monitoring mode and the data were processed with AB Sciex MultiQuant™. Back-calculated ZMP concentrations were fit to a four-parameter logistic equation using ACTIVITYBASE 4.0 to determine EC50 values relative to the maximum observed metabolite levels.

The next test has as its system A9 cells. The experiment in a line: MS detection of ZMP and dUMP in cultured cells. The class given is cell-based, murine. As to conditions: A9; data not shown. Here is the method:
To mimic human plasma levels, low folate media is traditionally used in which the folate comes only from the defined fetal bovine serum. […] Because LSN3213128 would be dosed in mice on normal diet, cell line screening was performed under standard tissue culture conditions to identify cell lines sensitive to treatment under high folate conditions. In order to compare tissue culture values with tumor levels, an average 4 pL cell volume[36] was used to calculate cellular ZMP concentrations. In MDA-MB-231[…] cells using regular RPMI, the peak intracellular ZMP levels are about 770 μM while in the salvage deficient A9 cells ZMP is 6,500 μM. […] It is not surprising that in vivo in mice on standard chow where folate plasma levels are >10-fold lower than tissue culture that tumor ZMP levels are also lower. […] ZMP was detected in cultured cells via mass spec analysis. Cells were plated in 96-well plates at 25,000 cells per well in 100 μL with either high or low folate RPMI media and incubated overnight at 37 °C with 5% CO2. Cells were treated with inhibitor compounds for 16 hours, 0.5% DMSO final concentration. Growth media was decanted and cells were lysed for 10 min at room temperature with 50 μL per well of 1x Sure Fire Lysis buffer (Perkin Elmer, SureFire kit component). […] Samples were sealed, vortexed for 5 minutes, and placed in the refrigerator for at least 30 minutes. The samples were centrifuged at 4 °C for 10 minutes at 16,600 g. 75 μL of the aqueous layer were transferred to a clean 96-well plate and seal prior to analysis. The LC-MS method utilizes a Shimadzu Prominence 20 A HPLC system connected to an AB Sciex 5500TM or an AB Sciex 6500TM triple quadrupole mass spectrometer. […] […] dUMP were detected using positive ion TurboIonSpray® multiple reaction monitoring mode and the data were processed with AB Sciex MultiQuantTM. Back-calculated ZMP concentrations were fit to a four-parameter logistic equation using ACTIVITYBASE 4.0 to determine EC50 values relative to the maximum observed metabolite levels.

The target in a further test is ATIC (AICARFT) (Homo sapiens, UniProt P31939). The experiment in a line: Folate dependent enzyme assay, conversion of ZMP to IMP (LC-MS). To be noted: read-out: Positive Control, IC50. The format is biochemical. Here is the method:
(§1) The human MTHFD2 (accession number: NM_006636.3) and MTHFD2L (accession number: NM_001144978.1) cDNAs were synthesized at GenScript. […] Bacterial BL21 (DE3) (Novagen) was used as an expression host, and protein purification is described in supplemental material.
(§2) Catalytic activity was assayed under the listed reaction conditions using a liquid chromatograph and either fluorescence or mass spectrometric detection as indicated. Reactions were carried out at RT for the reaction times given. The % response was fit to a four-parameter logistic equation using ACTIVITYBASE 4.0 to determine IC50 values.

A further test addresses T1, MTHFD1 (Homo sapiens, UniProt P11586).
T1 construct: made in house; host or cells: E. coli BL21 (DE3)
The test is described as follows: Folate dependent enzyme assay, NADPH (NAD(P)H-Glo). The format is biochemical. As to conditions: read-out: Positive Control, IC50.

Another test addresses MTHFD2 (Homo sapiens, UniProt P13995). The test is described as follows: Folate dependent enzyme assay, NADH (NAD(P)H-Glo). To be noted: read-out: Positive Control, IC50. The format is biochemical.
The next test addresses MTHFD2L (Homo sapiens, UniProt Q9H903). The experiment in a line: Folate dependent enzyme assay, NADH (NAD(P)H-Glo). As to conditions: read-out: Positive Control, IC50. The format is biochemical.
A further test addresses SHMT1 (Homo sapiens, UniProt P34896). The experiment in a line: Folate dependent enzyme assay, glycine derivatized with Marfey's reagent (HPLC). The format is biochemical. As to conditions: read-out: Positive Control, IC50. As for the experimental part: as §1, §2

Sequence of MTHFD2L (Q9H903 46-347): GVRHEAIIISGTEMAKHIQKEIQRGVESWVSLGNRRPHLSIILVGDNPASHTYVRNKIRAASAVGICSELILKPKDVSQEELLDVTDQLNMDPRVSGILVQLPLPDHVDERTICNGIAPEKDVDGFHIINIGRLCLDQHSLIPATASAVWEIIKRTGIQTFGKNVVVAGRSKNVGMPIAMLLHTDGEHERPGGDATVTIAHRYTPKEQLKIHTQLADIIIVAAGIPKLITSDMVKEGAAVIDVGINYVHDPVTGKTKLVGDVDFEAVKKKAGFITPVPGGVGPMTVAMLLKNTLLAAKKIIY
T1 sequence (P11586 whole entry): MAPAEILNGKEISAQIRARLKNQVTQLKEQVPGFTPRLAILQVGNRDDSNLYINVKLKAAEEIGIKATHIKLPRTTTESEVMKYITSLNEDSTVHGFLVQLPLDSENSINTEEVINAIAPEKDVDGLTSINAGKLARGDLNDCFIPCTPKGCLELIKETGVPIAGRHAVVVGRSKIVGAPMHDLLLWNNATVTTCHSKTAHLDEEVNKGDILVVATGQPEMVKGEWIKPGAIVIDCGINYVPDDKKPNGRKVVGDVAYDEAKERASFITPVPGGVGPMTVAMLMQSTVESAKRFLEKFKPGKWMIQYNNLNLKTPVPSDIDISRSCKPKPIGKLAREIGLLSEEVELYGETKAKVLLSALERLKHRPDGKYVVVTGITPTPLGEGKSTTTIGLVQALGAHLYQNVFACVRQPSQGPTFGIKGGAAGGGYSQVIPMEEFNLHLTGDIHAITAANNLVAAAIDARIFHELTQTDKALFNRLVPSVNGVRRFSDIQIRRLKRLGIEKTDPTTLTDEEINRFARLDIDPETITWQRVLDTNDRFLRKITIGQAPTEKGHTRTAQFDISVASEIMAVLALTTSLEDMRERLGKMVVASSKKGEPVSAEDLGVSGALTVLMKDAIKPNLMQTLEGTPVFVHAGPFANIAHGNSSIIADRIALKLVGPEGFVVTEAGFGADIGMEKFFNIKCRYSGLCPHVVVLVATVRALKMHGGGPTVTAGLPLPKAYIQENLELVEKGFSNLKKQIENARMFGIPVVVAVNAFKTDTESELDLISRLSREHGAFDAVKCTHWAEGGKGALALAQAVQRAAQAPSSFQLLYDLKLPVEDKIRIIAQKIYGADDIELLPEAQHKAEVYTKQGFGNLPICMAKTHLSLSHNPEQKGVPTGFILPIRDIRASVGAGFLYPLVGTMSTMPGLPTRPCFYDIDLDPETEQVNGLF
Sequence of MTHFD2 (P13995 32-350): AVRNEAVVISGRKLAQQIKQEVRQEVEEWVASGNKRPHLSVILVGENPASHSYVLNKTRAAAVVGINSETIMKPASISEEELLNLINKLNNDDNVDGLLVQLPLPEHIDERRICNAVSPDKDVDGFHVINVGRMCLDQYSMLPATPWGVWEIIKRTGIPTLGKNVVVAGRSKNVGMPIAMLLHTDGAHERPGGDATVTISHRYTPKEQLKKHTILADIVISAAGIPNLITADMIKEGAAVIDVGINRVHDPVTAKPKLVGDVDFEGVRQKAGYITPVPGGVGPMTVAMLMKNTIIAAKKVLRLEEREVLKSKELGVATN
Sequence of SHMT1 (P34896 whole entry): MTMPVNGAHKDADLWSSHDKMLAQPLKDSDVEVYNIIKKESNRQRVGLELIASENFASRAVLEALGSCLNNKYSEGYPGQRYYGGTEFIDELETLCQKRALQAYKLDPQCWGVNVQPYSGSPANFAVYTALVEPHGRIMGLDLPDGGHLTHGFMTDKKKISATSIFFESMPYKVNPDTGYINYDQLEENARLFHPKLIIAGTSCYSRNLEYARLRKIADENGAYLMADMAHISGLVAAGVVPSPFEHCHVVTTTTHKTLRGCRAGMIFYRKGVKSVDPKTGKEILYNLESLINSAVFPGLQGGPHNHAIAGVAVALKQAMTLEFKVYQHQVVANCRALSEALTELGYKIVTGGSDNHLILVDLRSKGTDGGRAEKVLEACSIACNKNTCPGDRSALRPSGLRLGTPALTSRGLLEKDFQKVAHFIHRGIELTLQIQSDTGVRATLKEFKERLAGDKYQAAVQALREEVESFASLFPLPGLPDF
Sequence of ATIC (AICARFT) (P31939 whole entry): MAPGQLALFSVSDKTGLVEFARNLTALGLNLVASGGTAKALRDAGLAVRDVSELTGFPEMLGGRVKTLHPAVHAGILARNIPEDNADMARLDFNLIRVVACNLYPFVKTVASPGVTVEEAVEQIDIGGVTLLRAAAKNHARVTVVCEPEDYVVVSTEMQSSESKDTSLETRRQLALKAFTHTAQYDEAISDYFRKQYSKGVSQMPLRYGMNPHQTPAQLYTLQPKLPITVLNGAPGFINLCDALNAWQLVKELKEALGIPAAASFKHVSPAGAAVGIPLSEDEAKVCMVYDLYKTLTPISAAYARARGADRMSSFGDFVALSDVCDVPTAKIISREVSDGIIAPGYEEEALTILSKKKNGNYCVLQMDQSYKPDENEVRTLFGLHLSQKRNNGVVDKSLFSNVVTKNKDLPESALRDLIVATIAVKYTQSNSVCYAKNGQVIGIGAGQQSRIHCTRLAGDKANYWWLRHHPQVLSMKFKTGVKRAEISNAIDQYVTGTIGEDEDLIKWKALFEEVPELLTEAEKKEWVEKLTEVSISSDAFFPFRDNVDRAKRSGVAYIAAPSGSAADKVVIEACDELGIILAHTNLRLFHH

In the case of `NC(=O)c1ncn([C@@H]2O[C@H](COP(=O)(O)O)[C@@H](O)[C@H]2O)c1N` [ZMP, 5-aminoimidazole 4-carboxamide ribonucleotide], the IC50 in test [1] was 108 ± 78 µM.
In the case of `Nc1nc2c(c(=O)[nH]1)C[C@@H](CCc1ccc(C(=O)N[C@@H](CCC(=O)O)C(=O)O)cc1)CN2` [lometrexol, reference compound], the “effect on ZMP” value in the test on NCI-H460 (lung) and with A9 cells was “inhibits ZMP” each time.
For the compound `Nc1nc2[nH]cc(CCCc3ccc(C(=O)N[C@@H](CCC(=O)O)C(=O)O)cc3)c2c(=O)[nH]1` [N-({4-[3-(2-AMINO-4-HYDROXY-7H-PYRROLO[2,3-D]PYRIMIDIN-5-YL)PROPYL]PHENYL}CARBONYL)-L-GLUTAMIC ACID], the 50% inhibitory concentration (IC50) was 9.2 µM on ATIC (AICARFT); 5.6 µM at MTHFD1; 1.4 µM at MTHFD2; 8.6 µM on MTHFD2L; 10.1 µM on SHMT1.
